Test results from patent publication US8551937B2, “Peptide having an extending action for half-life of object peptide in plasma” (priority 2008, dated 2013).
Where a SMILES comes first, the peptide text is derived from it. Bridges are numbered along the chain shown (N, C = ends).

Legend:
in vivo [1] = details: male, SD, rat, iv, 10 nmol/kg
Experimental: The experiment was carried out using rats into which polyethylene tube (PE-50 manufactured by Clay Adams) was previously inserted into thigh artery under an anesthetized condition with Nembutal. As to a test system, male SD strain rats (Nippon Charles River) of 7 weeks age were used where one group comprised 3 rats. Native CNP-22 or chimeric CNP in a dose of 10 nmol/kg was administered into tail vein of the rat and the blood before the administration and until 60 minutes after the administration was collected by a polyethylene tube inserted into the thigh artery. To the collected blood were added EDTA (manufactured by Dojin Laboratories) and aprotinin (manufactured by Bayer) as a stabilizer and an anti-coagulant, respectively and the plasma was separated therefrom by centrifugal separation. CNP immunoreactivity concentration in plasma was measured by a competitive radioimmunoassay (RIA). At that time, a rabbit polyclonal antibody (#2) which specifically recognizes the ring partial structure of the native CNP-22 was used as an antibody and, as a labeled compound, ^125I-[Tyr^0] CNP was used.

in vivo [2] = details: rat, iv
Experimental: Changes in CNP immunoreactivity concentration in plasma when the native CNP-22 shown by SEQ ID No: 101 was administered either solely or jointly with neutral endo-peptidase (NEP) inhibitor and compared with changes in CNP immunoreactivity concentration in plasma when native CNP-53 (SEQ ID No: 159) and the chimeric CNP (D) (structure mentioned already) were intravenously administered.
The experiment was conducted using rats where polyethylene tube (PE-50, manufactured by Clay Adams) was previously inserted into thigh artery under the anesthetized condition with Nembutal. In the group where the native CNP-22 was administered either solely or jointly with an NEP inhibitor, the polyethylene tube (PE-10, manufactured by Clay Adams) was also inserted into the thigh vein. As to a test system, male SD rats (Nippon Charles River) of 7 weeks age were used where one group comprised three rats. As to the NEP inhibitor, DL-Thiorphan (manufactured by Sigma) was used and, during the period from 10 minutes before the initiation of administration of the native CNP-22 until 60 minutes after the initiation of the administration where collection of the blood finished, 5% mannitol (100 μL/min/body) or NEP inhibitor (30 μg/100 μL/min/body) was subjected to a constant-speed intravenous administration for 70 minutes using an Infusion Pump (CFV 2100, manufactured by Nippon Koden K. K.). Native CNP-22, native CNP-53 or chimeric CNP (D) was administered into tail vein in a dose of 20 nmol/kg each and blood over the time from before administration and 60 minutes after administration was collected from a polyethylene tube inserted into the thigh artery. To the collected blood were added EDTA (Dojin Laboratories) and aprotinin (manufactured by Bayer) as a stabilizer and an anti-coagulant, respectively and the plasma was separated by means of centrifugal separation. CNP immunoreactivity concentration in the plasma was measured by a competitive radioimmunoassay (RIA). At that time, a rabbit polyclonal antibody (#2) which specifically recognizes a ring part structure which is the common structure for native CNP-22 and native CNP-53 was used as an antibody while, as a labeling compound, ^125I-[Tyr^0] CNP-22 was used.

Question: Which half-life (in vivo [1]) does the source give for `CC[C@H](C)[C@@H]1NC(=O)[C@H](CCCNC(=N)N)NC(=O)[C@H](CC(=O)O)NC(=O)[C@H](CC(C)C)NC(=O)[C@H](CCCCN)NC(=O)[C@H](CC(C)C)NC(=O)CNC(=O)[C@H](Cc2ccccc2)NC(=O)[C@@H](NC(=O)CNC(=O)[C@H](CCCCN)NC(=O)[C@H](CO)NC(=O)[C@H](CC(C)C)NC(=O)CN)CSSC[C@@H](C(=O)N[C@H](C(=O)N[C@@H](CCC(N)=O)C(=O)N[C@@H](CCC(N)=O)C(=O)N[C@@H](CCCNC(=N)N)C(=O)N[C@@H](CCCCN)C(=O)N[C@@H](CCC(=O)O)C(=O)N[C@@H](CO)C(=O)N[C@@H](CCCCN)C(=O)N[C@@H](CCCCN)C(=O)N2CCC[C@H]2C(=O)N2CCC[C@H]2C(=O)N[C@@H](C)C(=O)N[C@@H](CCCCN)C(=O)N[C@@H](CC(C)C)C(=O)N[C@@H](CCC(N)=O)C(=O)N2CCC[C@H]2C(=O)N[C@@H](CCCNC(=N)N)C(=O)O)C(C)C)NC(=O)CNC(=O)[C@H](CC(C)C)NC(=O)CNC(=O)[C@H](CO)NC(=O)[C@H](CCSC)NC(=O)[C@H](CO)NC(=O)CNC1=O` [Chimeric CNP (D)] (H-GLSKGCFGLKLDRIGSMSGLGCVQQRKESKKPPAKLQPR-OH; disulfide 6-22; N-terminus and C-terminus assumed) here?
Answer: The half-life was 20.3 min.

Question: What about the “half-life compared with native CNP-22, native CNP-22 together with NEP inhibitor and native CNP-53” value (in vivo [2]) of the same molecule?
Answer: Its value is “longer half-life”.

Question: Which half-life (in vivo [2]; male, SD) does the source give for `CC[C@H](C)[C@@H]1NC(=O)[C@H](CCCNC(=N)N)NC(=O)[C@H](CC(=O)O)NC(=O)[C@H](CC(C)C)NC(=O)[C@H](CCCCN)NC(=O)[C@H](CC(C)C)NC(=O)CNC(=O)[C@H](Cc2ccccc2)NC(=O)[C@@H](NC(=O)CNC(=O)[C@H](CCCCN)NC(=O)[C@H](CO)NC(=O)[C@H](CC(C)C)NC(=O)CNC(=O)[C@H](CCCCN)NC(=O)[C@H](CCCCN)NC(=O)[C@H](CC(N)=O)NC(=O)[C@H](C)NC(=O)CNC(=O)[C@H](CCCCN)NC(=O)[C@H](Cc2ccc(O)cc2)NC(=O)[C@H](CCCCN)NC(=O)[C@H](CCCNC(=N)N)NC(=O)[C@H](C)NC(=O)[C@H](CC(N)=O)NC(=O)[C@@H]2CCCN2C(=O)[C@H](Cc2c[nH]cn2)NC(=O)[C@H](CCC(=O)O)NC(=O)[C@H](CCC(N)=O)NC(=O)[C@H](CC(C)C)NC(=O)[C@H](CC(C)C)NC(=O)[C@H](CCCNC(=N)N)NC(=O)[C@H](C)NC(=O)[C@H](Cc2c[nH]c3ccccc23)NC(=O)[C@H](C)NC(=O)[C@H](C)NC(=O)[C@H](CCCNC(=N)N)NC(=O)[C@H](CO)NC(=O)[C@H](CCCCN)NC(=O)[C@@H](NC(=O)[C@H](CC(=O)O)NC(=O)[C@@H](NC(=O)[C@H](CCCNC(=N)N)NC(=O)[C@H](CC(C)C)NC(=O)[C@@H](N)CC(=O)O)C(C)C)[C@@H](C)O)CSSC[C@@H](C(=O)O)NC(=O)CNC(=O)[C@H](CC(C)C)NC(=O)CNC(=O)[C@H](CO)NC(=O)[C@H](CCSC)NC(=O)[C@H](CO)NC(=O)CNC1=O` [Native CNP-53] here?
Answer: The half-life was 15.7 min.
